# Where two headings read alike, the source gives them in different places.
# Assays:
# [1] = target: T1, rat GnRH receptor (Rattus norvegicus, UniProt P30969); assay: Radioligand binding: inhibition of 125I-GnRH-A binding to rat GnRH receptor (rat pituitary membranes); settings: read-out: Ki (nM), Inhibition Binding of 125I-GnRH-A to GnRH Receptors
# T1 construct: or rat pituitaries (Pel Freez Biologicals, Rogers, Ark.) were homogenized; tissue Pel Freez Biologicals; host or cells: rat pituitaries (membrane preparation)
# T1 sequence (P30969 1-327): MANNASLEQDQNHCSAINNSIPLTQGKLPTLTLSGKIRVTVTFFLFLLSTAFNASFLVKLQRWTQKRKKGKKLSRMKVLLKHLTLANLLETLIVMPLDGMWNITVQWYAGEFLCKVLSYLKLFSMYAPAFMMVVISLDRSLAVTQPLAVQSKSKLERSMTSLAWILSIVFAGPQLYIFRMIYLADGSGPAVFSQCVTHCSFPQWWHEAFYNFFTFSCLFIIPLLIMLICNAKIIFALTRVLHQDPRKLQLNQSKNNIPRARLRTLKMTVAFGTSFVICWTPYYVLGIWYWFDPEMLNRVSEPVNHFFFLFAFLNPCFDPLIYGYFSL
# Procedure, shortened: (§1)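 Membranes from rat pituitaries, or HEK 293 cells stably expressing mouse or human receptor, incubated 1 hour at room temperature with ~0.04-0.06 nM radioligand (HEPES pH 7.4, EDTA, MgCl2, BSA) and competitor at 0.1-10,000 nM. Bound ligand collected by GF/C filtration and counted; Ki derived from IC50 by Cheng-Prusoff.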
# [2] = Rat plasma % remain; assay type: in vitro ADME
# [3] = Solubility at pH2 and pH6; assay type: physicochemical
# [4] = In vitro metabolism: disappearance of parent compound in human liver microsomes; assay type: in vitro ADME; settings: 5 uM compound, 0.5 mg/ml protein, 2 mM NADPH, 30 minutes 37° C.
# Procedure, shortened: (§2)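 Microsomes from human, rat (male, female), dog and monkey liver incubated with 5 uM compound, 0.5 mg/ml protein and 2 mM NADPH in 50 mM K phosphate, pH 7.4, for 30 min at 37° C. Reaction stopped with acetonitrile; parent compound remaining measured by LC-MS.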
# [5] = In vitro metabolism: disappearance of parent compound in rat liver microsomes (male, female); assay type: in vitro ADME; settings: 5 uM compound, 30 minutes 37° C.; for Fem. Rat (FR) % rem. 30′: female rat liver microsomes; for Male Rat (MR) % rem. 30′: male rat liver microsomes
# Procedure, shortened: as §2
# [6] = target: H S A (Homo sapiens, UniProt P02768); assay: H S A column α; assay type: in vitro ADME
# [7] = target: T2, human GnRH receptors (Homo sapiens, UniProt P30968); assay: Radioligand binding: inhibition of 125I-GnRH-A binding to human GnRH receptor membranes; settings: HEK 293 cell membranes
# T2 construct: expressed in transfected cells; host or cells: HEK 293 cells, stably transfected; membranes
# T2 sequence (P30968 1-328): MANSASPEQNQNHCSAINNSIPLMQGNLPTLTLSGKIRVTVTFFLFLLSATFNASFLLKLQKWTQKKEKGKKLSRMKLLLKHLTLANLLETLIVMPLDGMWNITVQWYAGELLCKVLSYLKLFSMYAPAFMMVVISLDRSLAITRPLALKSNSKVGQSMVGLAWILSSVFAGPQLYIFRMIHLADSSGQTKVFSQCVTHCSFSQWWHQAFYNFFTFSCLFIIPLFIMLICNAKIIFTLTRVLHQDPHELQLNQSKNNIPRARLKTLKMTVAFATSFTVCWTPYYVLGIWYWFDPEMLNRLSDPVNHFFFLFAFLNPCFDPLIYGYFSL
# Procedure, shortened: as §1
# [8] = Pharmacokinetics in rats (jugular vein cannula, plasma LC-MS); assay type: in vivo, Rat; settings: for Cmax / half-life / Tmax: rat, plasma
# Experimental: Rats (male or female, 200-225 g) were prepared with indwelling jugular vein cannula as described by Harms et al., Applied Physiol. 36:391-398 (1974), and allowed to recover overnight with free access to the standard vivarium chow and water. […] […] The blood samples were withdrawn at specific times, plasma was immediately separated and compound extracted with ethyl acetate. The samples were analyzed by LC-MS using 30-90% gradient of ACN in 50 mM ammonium acetate.
# The pharmacokinetic parameters were calculated using WinNonlin software (Scientific Consulting Inc.). The bioavailability was calculated as AUCp.o./AUCi.v., where AUCp.o. and AUC i.v. are areas under the plasma concentration-time curve after oral and i.v. administration, respectively.
# [9] = In vitro metabolism: disappearance of parent compound in monkey liver microsomes; assay type: in vitro ADME; settings: 5 uM compound, 30 minutes 37° C.
# Procedure, shortened: as §2
# [10] = In vitro metabolism: disappearance of parent compound in dog liver microsomes; assay type: in vitro ADME; settings: 5 uM compound, 30 minutes 37° C.
# Procedure, shortened: as §2
# [11] = pH 6, aqueous buffer, pH6, read-out: Solubility μg/ml pH6
# [12] = female rat, 10 mg/kg as 5 mg/ml solution in 10% DMSO, 10% cremophor, 80% saline (footnote 5)
# [13] = female, po, 10 mg/kg, female rat, 10 mg/kg as 5 mg/ml solution in 10% DMSO, 10% cremophor, 80% saline (footnote 5), read-out: FR Cmax
# [14] = female, po, 10 mg/kg, female rat, 10 mg/kg as 5 mg/ml solution in 10% DMSO, 10% cremophor, 80% saline (footnote 5), read-out: FR T1/2 hr (converted)
# [15] = female, po, 10 mg/kg, female rat, 10 mg/kg as 5 mg/ml solution in 10% DMSO, 10% cremophor, 80% saline (footnote 5), read-out: FR Tmax hr
# Chain of H S A (P02768 25-609): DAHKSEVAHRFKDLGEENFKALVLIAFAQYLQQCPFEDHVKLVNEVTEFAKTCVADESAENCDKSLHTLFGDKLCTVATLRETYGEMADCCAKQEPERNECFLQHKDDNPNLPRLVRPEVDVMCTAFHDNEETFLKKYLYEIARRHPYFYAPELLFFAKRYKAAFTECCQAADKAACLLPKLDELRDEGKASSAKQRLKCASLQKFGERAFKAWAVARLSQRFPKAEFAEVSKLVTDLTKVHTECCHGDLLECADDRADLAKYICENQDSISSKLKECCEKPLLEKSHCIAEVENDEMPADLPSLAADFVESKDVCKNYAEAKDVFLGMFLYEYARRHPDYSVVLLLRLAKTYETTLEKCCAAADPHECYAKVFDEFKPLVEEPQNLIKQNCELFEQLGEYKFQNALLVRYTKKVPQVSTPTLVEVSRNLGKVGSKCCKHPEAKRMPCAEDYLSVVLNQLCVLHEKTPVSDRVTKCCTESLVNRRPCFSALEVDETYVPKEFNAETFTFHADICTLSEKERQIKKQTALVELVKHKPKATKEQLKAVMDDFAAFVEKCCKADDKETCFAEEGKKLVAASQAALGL
Structure (SMILES),Ki [1] [nM],Rat plasma % remain [2] [%],"solubility [3, 11] [µg/mL]",Human % rem. 30′ [4] [%],Fem. Rat (FR) % rem. 30′ [5] [%],Male Rat (MR) % rem. 30′ [5] [%],H S A column α [6],Ki [7] [nM],"FR Fp.o. [8, 12] [%^5]","Cmax [8, 13] [nM]","half-life [8, 14] [h]","Tmax [8, 15] [h]",Monkey % rem. [9] [%],Dog % rem. 30′ [10] [%],"solubility ([3]; pH 2, simulated gastric fluid, pH2, read-out: Solubility μg/ml pH2) [µg/mL]","MR Fp.o. ([8]; male rat, male rats dosed orally at 50 mg/kg) [%]","Cmax ([8]; male, oral, 50 mg/kg, male rat, male rats dosed orally at 50 mg/kg, read-out: MR Cmax) [nM]","half-life ([8]; male, oral, 50 mg/kg, male rat, male rats dosed orally at 50 mg/kg, read-out: MR T1/2 hr (converted)) [h]","Tmax ([8]; male, oral, 50 mg/kg, male rat, male rats dosed orally at 50 mg/kg, read-out: MR Tmax hr) [h]"
"COc1nc(Nc2ccccc2)nc(OC)c1NC(=O)c1ccc(Cc2cc3c(cc2C)C(C)(C)OC3(C)C)o1 [Example D1, 5-(1,1,3,3,6-Pentamethyl-1,3-dihydro-isobenzofuran-5-ylmethyl)-furan-2-carboxylic Acid (4,6-dimethoxy-2-phenylamino-pyrimidin-5-yl)-amide]",2.1,100,> 15,82,81,20,8,1.6,2,100,1.2,1,22,52,–,–,–,–,–
"CCN(CC)CCNc1nc(OC)c(NC(=O)c2ccc(Cc3cc4c(cc3C)C(C)(C)OC4(C)C)o2)c(OC)n1 [Example D7, N-(2-{[2-(Diethylamino)ethyl]amino}-4,6-dimethoxypyrimidin-5-yl)-5-[(1,1,3,3,6-pentamethyl-1,3-dihydro-2-benzofuran-5-yl)methyl]-2-furamide]",2.2,100,–,91,95,91,2,6,30,500,4.1,2,16,91,–,–,–,–,–
"COc1nc(NCCCN2CCOCC2)nc(OC)c1NC(=O)c1ccc(Cc2cc3c(cc2Cl)C(C)(C)CCC3(C)C)o1 [Example G1, 5-(3-Chloro-5,5,8,8-tetramethyl-5,6,7,8-tetrahydro-naphthalen-2-ylmethyl)-furan-2-carboxylic acid[4,6-dimethoxy-2-(3-morpholin-4-yl-propylamino)-pyrimidin-5-yl]-amide]",0.9,92,–,79,92,80,>30,1.7,10,200,4.1,2,0,70,–,–,–,–,–
"COc1nc(N(C)C)nc(OC)c1NC(=O)c1ccc(Cc2cc3c(cc2C)C(C)(C)OC3(C)C)o1 [Example D8, N-[2-(Dimethylamino)-4,6-dimethoxypyrimidin-5-yl]-5-[(1,1,3,3,6-pentamethyl-1,3-dihydro-2-benzofuran-5-yl)methyl]-2-furamide]",31,100,–,73,84,58,3,6,–,–,–,–,4,49,–,–,–,–,–
COc1nc(NCCN2CCCC2)nc(OC)c1NC(=O)c1ccc(Cc2cc3c(cc2C)C(C)(C)OC3(C)C)o1 [Example D5],0.84,–,> 30,80,95,79,2,1.5,–,–,–,–,30,98,> 30,34,700,7,4
"COc1nc(NCCCN(C)C)nc(OC)c1NC(=O)c1ccc(Cc2cc3c(cc2C)C(C)(C)OC3(C)C)o1 [Example D9, N-(2-{[3-(Dimethylamino)propyl]amino}-4,6-dimethoxypyrimidin-5-yl)-5-[(1,1,3,3,6-pentamethyl-1,3-dihydro-2-benzofuran-5-yl)methyl]-2-furamide]",0.54,100,–,89,100,80,2,3,57,800,4.3,2,44,100,–,–,–,–,–

# From US6833372B2, “Non-peptide GnRH agents, Pharmaceutical compositions, and methods for their use” (Pfizer, Inc., priority 2002, dated 2004)
